{"source": "ChEMBL document CHEMBL1201862", "about": "“PubChem BioAssay data set” (2004)", "experiment_in_all_cases": "NCI anticancer screen, dose series, 48 h", "key": {"[1]": {"system": "MCF7"}, "[2]": {"system": "RXF 631"}, "[3]": {"system": "DMS-273"}, "[4]": {"system": "LXFL 529"}, "[5]": {"system": "XF498"}, "[6]": {"system": "M19-MEL"}, "[7]": {"system": "DLD-1"}, "[8]": {"system": "HOP-18"}, "[9]": {"system": "DMS-114"}}, "note": "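In this assay, cells in 96-well plates receive the compound at five concentrations for 48 hours. Endpoints are linearly interpolated between the surrounding concentrations. GI50 is the concentration that inhibits growth by half.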 Calls of active or inactive are those of the source. Rule as the data show it: active = GI50 up to about 1.1 µM and inactive = higher.", "data": [{"smiles": "NS(=O)(=O)c1nnc(NC(=O)C23CC4CC(CC(C4)C2)C3)s1", "values": [{"measurement": "GI50", "setting": "[1]", "value": "> 100 µM (inactive)"}]}, {"smiles": "S=C(Nc1ccc2cn[nH]c2c1)Nc1ccc2cn[nH]c2c1", "values": [{"measurement": "GI50", "setting": "[1]", "value": "82 µM (inactive)"}]}, {"smiles": "CSc1nc2cc(S(=O)(=O)N3CCCCC3)ccc2s1", "values": [{"measurement": "GI50", "setting": "[1]", "value": "> 100 µM (inactive)"}]}, {"smiles": "O=C1CC(c2c[nH]c3ccccc23)C(=O)N1", "note": "(stereo unspecified)", "values": [{"measurement": "GI50", "setting": "[2]", "value": "> 100 µM (inactive)"}, {"measurement": "GI50", "setting": "[3]", "value": "> 100 µM (inactive)"}, {"measurement": "GI50", "setting": "[4]", "value": "> 100 µM (inactive)"}, {"measurement": "GI50", "setting": "[5]", "value": "> 100 µM (inactive)"}, {"measurement": "GI50", "setting": "[6]", "value": "> 100 µM (inactive)"}, {"measurement": "GI50", "setting": "[7]", "value": "> 100 µM (inactive)"}]}, {"smiles": "CC(C)(CO[C@H]1C[C@H]2CC[C@@]1(C)C2(C)C)[N+](=O)[O-]", "values": [{"measurement": "GI50", "setting": "[1]", "value": "22.9 µM (inactive)"}]}, {"smiles": "Clc1ccccc1C(Nc1ncccn1)Nc1ncccn1", "values": [{"measurement": "GI50", "setting": "[1]", "value": "> 100 µM (inactive)"}]}, {"smiles": "COc1ccc(CSC2=C(C#N)C(=O)NC3(CCCCC3)S2)cc1", "values": [{"measurement": "GI50", "setting": "[1]", "value": "34.2 µM (inactive)"}]}, {"smiles": "COc1ccc(CCN2C(=O)C=CC2=O)cc1OC", "values": [{"measurement": "GI50", "setting": "[1]", "value": "17.3 µM (inactive)"}]}, {"smiles": "Cc1cc2c(cc1C)C(=O)C1(C2)Cc2c(C)ccc(C)c2C1=O", "note": "(stereo unspecified)", "values": [{"measurement": "GI50", "setting": "[1]", "value": "> 100 µM (inactive)"}]}, {"smiles": "CC(C)(C)C(=O)c1c(O)c2ccccc2c2ccccc2c1=O", "values": [{"measurement": "GI50", "setting": "[1]", "value": "> 100 µM (inactive)"}]}, {"smiles": "O/N=C1\\Nc2ccccc2OCc2cc(Br)c(Br)cc2COc2ccccc2N\\C1=N/O", "values": [{"measurement": "GI50", "setting": "[1]", "value": "6.81 µM (inactive)"}]}, {"smiles": "COC(=O)c1c2c(cc3c1CC1(Cc4cc5c(c(C=O)c4C1)CCC5)C3)CCC2", "note": "(stereo unspecified)", "values": [{"measurement": "GI50", "setting": "[1]", "value": "42 µM (inactive)"}]}, {"smiles": "CN1CN(C2OC(CO)C(O)C2O)c2nc(N)[nH]c(=O)c21", "note": "(stereo unspecified)", "values": [{"measurement": "GI50", "setting": "[3]", "value": "> 100 µM (inactive)"}, {"measurement": "GI50", "setting": "[8]", "value": "> 100 µM (inactive)"}, {"measurement": "GI50", "setting": "[9]", "value": "> 100 µM (inactive)"}, {"measurement": "GI50", "setting": "[4]", "value": "> 100 µM (inactive)"}, {"measurement": "GI50", "setting": "[5]", "value": "> 100 µM (inactive)"}, {"measurement": "GI50", "setting": "[6]", "value": "> 100 µM (inactive)"}, {"measurement": "GI50", "setting": "[7]", "value": "> 100 µM (inactive)"}]}, {"smiles": "COC(=O)C1Cc2cc3c(cc2C1)CCC3", "values": [{"measurement": "GI50", "setting": "[1]", "value": "> 100 µM (inactive)"}]}, {"smiles": "CN(C)CCCNC(=O)c1cc(NC(=O)c2cc(NS(=O)(=O)c3ccc4c(c3)C(=O)c3ccccc3C4=O)cn2C)cn1C", "values": [{"measurement": "GI50", "setting": "[1]", "value": "31.8 µM (inactive)"}]}, {"smiles": "CCC(=O)NCC1(c2c[nH]c3ccccc23)SCCS1", "values": [{"measurement": "GI50", "setting": "[3]", "value": "> 100 µM (inactive)"}, {"measurement": "GI50", "setting": "[8]", "value": "> 100 µM (inactive)"}, {"measurement": "GI50", "setting": "[9]", "value": "47.5 µM (inactive)"}, {"measurement": "GI50", "setting": "[4]", "value": "> 100 µM (inactive)"}, {"measurement": "GI50", "setting": "[5]", "value": "> 100 µM (inactive)"}, {"measurement": "GI50", "setting": "[6]", "value": "> 100 µM (inactive)"}, {"measurement": "GI50", "setting": "[7]", "value": "> 100 µM (inactive)"}]}, {"smiles": "C[N+]1(C(CO)Cc2c[nH]c3ccccc23)Cc2ccccc2C1", "note": "(stereo unspecified)", "values": [{"measurement": "GI50", "setting": "[1]", "value": "> 100 µM (inactive)"}]}, {"smiles": "COc1ccc(NC(=O)CC/C(CC(=O)c2ccco2)=N/NC(=O)C(N)=O)cc1", "values": [{"measurement": "GI50", "setting": "[3]", "value": "> 100 µM (inactive)"}, {"measurement": "GI50", "setting": "[8]", "value": "> 100 µM (inactive)"}, {"measurement": "GI50", "setting": "[9]", "value": "35.2 µM (inactive)"}, {"measurement": "GI50", "setting": "[4]", "value": "65.5 µM (inactive)"}, {"measurement": "GI50", "setting": "[5]", "value": "82.8 µM (inactive)"}, {"measurement": "GI50", "setting": "[6]", "value": "74.6 µM (inactive)"}, {"measurement": "GI50", "setting": "[7]", "value": "> 100 µM (inactive)"}]}, {"smiles": "C[N+]12C=CC=C1C(N1CCCC1)c1sc(-c3ccc(Cl)cc3)cc12", "note": "(stereo unspecified)", "values": [{"measurement": "GI50", "setting": "[1]", "value": "14.7 µM (inactive)"}]}, {"smiles": "O=C1/C(=C/c2ccccc2)CCc2ccc([N+](=O)[O-])cc21", "values": [{"measurement": "GI50", "setting": "[1]", "value": "4.17 µM (inactive)"}]}, {"smiles": "C[C@]12CC/C(=N\\O)C=C1CC[C@@H]1C2CC[C@@]2(C)C1CC[C@@H]2OC1CCCCO1", "note": "(stereo partly specified)", "values": [{"measurement": "GI50", "setting": "[3]", "value": "17.7 µM (inactive)"}, {"measurement": "GI50", "setting": "[8]", "value": "16.4 µM (inactive)"}, {"measurement": "GI50", "setting": "[9]", "value": "22 µM (inactive)"}, {"measurement": "GI50", "setting": "[4]", "value": "17.2 µM (inactive)"}, {"measurement": "GI50", "setting": "[6]", "value": "19.1 µM (inactive)"}, {"measurement": "GI50", "setting": "[7]", "value": "30.7 µM (inactive)"}]}, {"smiles": "CC(=O)/C(=C\\c1ccc(Cl)c(Cl)c1)C(=O)C(C)CN(C)C", "note": "(stereo unspecified)", "values": [{"measurement": "GI50", "setting": "[1]", "value": "3.61 µM (inactive)"}]}, {"smiles": "COc1cc2c(cc1OC)-c1cc(OC)c(OC)cc1[C@H]1CN3CCC[C@@]3(O)C=C21", "values": [{"measurement": "GI50", "setting": "[3]", "value": "< 0.0001 µM (active)"}, {"measurement": "GI50", "setting": "[8]", "value": "< 0.0001 µM (active)"}, {"measurement": "GI50", "setting": "[9]", "value": "< 0.0001 µM (active)"}, {"measurement": "GI50", "setting": "[4]", "value": "< 0.0001 µM (active)"}, {"measurement": "GI50", "setting": "[5]", "value": "< 0.0001 µM (active)"}, {"measurement": "GI50", "setting": "[6]", "value": "< 0.0001 µM (active)"}, {"measurement": "GI50", "setting": "[7]", "value": "< 0.0001 µM (active)"}]}, {"smiles": "CNC(=O)CCC(NC(=O)OC(C)(C)C)C(=O)NC(Cc1ccc(NC(=O)CCCCC(C)=O)cc1)C(=O)NCC(=O)NC", "note": "(stereo unspecified)", "values": [{"measurement": "GI50", "setting": "[1]", "value": "> 100 µM (inactive)"}]}, {"smiles": "Cc1nc(Nc2ccc(Cl)cc2Cl)sc1C(=O)Nc1ccccc1", "values": [{"measurement": "GI50", "setting": "[1]", "value": "36 µM (inactive)"}]}, {"smiles": "COC1=C(OC)C(=O)C(Cc2c(-c3ccccc3)nc3sc(Cl)cn23)=C(C)C1=O", "values": [{"measurement": "GI50", "setting": "[1]", "value": "20.3 µM (inactive)"}]}, {"smiles": "Cc1nc2ccc(F)cc2c2c1CCN2c1ccccc1", "values": [{"measurement": "GI50", "setting": "[1]", "value": "28.1 µM (inactive)"}]}, {"smiles": "CC(=O)OCC12C(=O)C[C@@H](C)C3(CC(c4ccoc4)OC3=O)C1CCC(OC(C)=O)C21CO1", "note": "(stereo partly specified)", "values": [{"measurement": "GI50", "setting": "[1]", "value": "> 100 µM (inactive)"}]}, {"smiles": "Cc1cc(C)nc(NS(=O)(=O)c2ccc(Nc3c4ccccc4nc4c(C(=O)NCCN(C)C)ccc(Cl)c34)cc2)n1", "values": [{"measurement": "GI50", "setting": "[9]", "value": "1.01 µM (active)"}, {"measurement": "GI50", "setting": "[4]", "value": "1.11 µM (active)"}, {"measurement": "GI50", "setting": "[5]", "value": "5.13 µM (inactive)"}, {"measurement": "GI50", "setting": "[6]", "value": "2.05 µM (inactive)"}, {"measurement": "GI50", "setting": "[7]", "value": "3.03 µM (inactive)"}]}, {"smiles": "COc1cc2cc(C(=O)N3CC(CCl)c4c3cc(NCCN)c3ccccc43)[nH]c2c(OC)c1OC", "note": "(stereo unspecified)", "values": [{"measurement": "GI50", "setting": "[1]", "value": "< 0.01 µM (active)"}]}, {"smiles": "O=C1c2ccccc2C(=O)c2c1c1cc(O)ccc1n2Cc1ccc(Cl)cc1Cl", "values": [{"measurement": "GI50", "setting": "[1]", "value": "4.11 µM (inactive)"}]}, {"smiles": "COc1ccc(OC)c2sc(N3C(=O)/C(=C/c4ccc(N(C)C)cc4)N=C3c3ccccc3)nc12", "values": [{"measurement": "GI50", "setting": "[1]", "value": "22.3 µM (inactive)"}]}, {"smiles": "O=S(=O)(O)C(CO)c1ccccc1.O=S(=O)(O)Cc1ccccc1", "note": "(stereo unspecified)", "values": [{"measurement": "GI50", "setting": "[1]", "value": "> 100 µM (inactive)"}]}, {"smiles": "CC1CC(C(=O)OC2OC(COC3OC(CO)C(OC4OC(C)C(O)C(O)C4O)C(O)C3O)C(O)C(O)C2O)C2CCC3(C)C(=CCC4(C)C3CCC3C(C)(CO)C(O)C(O)CC34C)C2C1C", "note": "(stereo unspecified)", "values": [{"measurement": "GI50", "setting": "[1]", "value": "23.7 µM (inactive)"}]}, {"smiles": "CCOC(=O)C1(C#N)C(C#N)(C#N)C1(C#N)C#N", "values": [{"measurement": "GI50", "setting": "[1]", "value": "> 100 µM (inactive)"}]}, {"smiles": "OCc1ccc2c(c1)CC1(Cc3ccc(/C=N/O)cc3C1)C2", "note": "(stereo unspecified)", "values": [{"measurement": "GI50", "setting": "[1]", "value": "2 µM (inactive)"}]}, {"smiles": "CC1(C)[C@@H](Cn2cnc3c(N)ncnc32)CC[C@@]1(C)CO", "values": [{"measurement": "GI50", "setting": "[1]", "value": "74.1 µM (inactive)"}]}, {"smiles": "Cc1ccc(/C(=C\\C(=O)C(=O)NC23CC4CC(CC(C4)C2)C3)Sc2ccccc2)cc1", "values": [{"measurement": "GI50", "setting": "[1]", "value": "> 10 µM (inactive)"}]}]}
